Experimental data as given in paper PMC5766998, “Determination of the native features of the exoglucanase Cel48S from Clostridium thermocellum” (Biotechnology for Biofuels, 2018).

Target: T1, ctCel48S_CD (Acetivibrio thermocellus, UniProt C7ED31)
T1 construct: GH48 catalytic domain, dockerin removed by inserted stop codon; C-terminal Gly5 linker and His12 tag kept; purified from culture supernatant of C. thermocellum DSM1313 (secreted); monomer
Experiment: reducing sugars released, HPLC
Format: biochemical
Conditions: 1% (wt/vol) substrate, 50 mM succinate pH 5.7, 10 mM CaCl2, 55 °C, 5 h

T1 sequence (C7ED31 entry or part of it): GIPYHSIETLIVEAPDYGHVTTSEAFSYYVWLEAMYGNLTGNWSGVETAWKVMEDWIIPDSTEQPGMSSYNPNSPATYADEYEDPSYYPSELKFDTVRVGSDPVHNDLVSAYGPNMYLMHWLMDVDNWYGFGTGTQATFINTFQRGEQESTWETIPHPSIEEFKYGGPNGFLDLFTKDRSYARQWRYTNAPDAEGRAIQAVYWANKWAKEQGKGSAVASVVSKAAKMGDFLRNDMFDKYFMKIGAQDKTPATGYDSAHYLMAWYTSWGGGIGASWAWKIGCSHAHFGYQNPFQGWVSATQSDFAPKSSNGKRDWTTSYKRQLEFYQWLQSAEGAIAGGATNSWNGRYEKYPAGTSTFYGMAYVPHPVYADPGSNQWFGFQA

| SMILES | reducing sugars released, HPLC |
| --- | --- |
| OC[C@H]1O[C@@H](O[C@H]2[C@H](O)[C@@H](O)[C@H](O[C@H]3[C@H](O)[C@@H](O)[C@H](O[C@H]4[C@H](O)[C@@H](O)[C@H](O[C@H]5[C@H](O)[C@@H](O)C(O)O[C@@H]5CO)O[C@@H]4CO)O[C@@H]3CO)O[C@@H]2CO)[C@H](O)[C@@H](O)[C@@H]1O (some centres unmarked) [cellopentose] | ctCel48S_CD could also hydrolyze cellopentose and cellotetrose |
| OC[C@H]1O[C@@H](O[C@H]2[C@H](O)[C@@H](O)[C@H](O[C@H]3[C@H](O)[C@@H](O)[C@H](O[C@H]4[C@H](O)[C@@H](O)C(O)O[C@@H]4CO)O[C@@H]3CO)O[C@@H]2CO)[C@H](O)[C@@H](O)[C@@H]1O (some centres unmarked) [cellotetrose] | ctCel48S_CD could also hydrolyze cellopentose and cellotetrose |
